According to US8835476B2, “Synthesis of novel antimicrobials” (priority 2005, dated 2014):

Columns and labels:
recombinant E. coli LpxA = target: T1, recombinant E. coli LpxA (Escherichia coli, UniProt P0A722); experiment: LpxA assay: acyl-UDP-GlcNAc formation from UDP-[3H]GlcNAc, TLC; assay type: biochemical; details: 5 mM compound; FIG. 8
T1 construct: 6xHis (C); made in house; host or cells: E. coli BL21 (pET23b)
Excerpt: The lpxA gene was amplified from an E. coli genomic library and inserted into a pET23b vector using standard recombinant DNA methodology. The 5′ oligonucleotide for amplification of the LpxA open reading frame was 5′-[…]-3′ (SEQ ID NO. 1) and contains a BamHI restriction enzyme site upstream of the LpxA ATG start codon and the 3′ oligonucleotide was 5′-[…]-3′ (SEQ ID NO. 2) and contains a XhoI restriction enzyme site downstream of the final codon of the LpxA open reading frame. Primers were custom synthesized. The primers were designed such that digestion of the amplification product would result in addition of a C-terminal 6×-His tag in frame with the LpxA open reading frame. Specifically, E. coli genomic DNA was isolated and an amplification reaction was carried out as follows: 33 μl water, 5 μl 10× reaction buffer, 1.5 μl of 50 mM magnesium sulfate, 3 μl of 10 mM dNTPs, 3 μl of a 50 μM solution of the 5′ LpxA primer, 3 μl of a 50 μM solution of the 3′ LpxA primer, 0.5 μl of E. coli genomic DNA solution, and 1 μl of polymerase. The reaction conditions were as follows: 94° C. for 2 minutes; followed by 30 cycles of 94° C. for 30 seconds, 50° C. for 30 seconds, 68° C. for 1.5 minutes, followed by an extension at 68° C. for 7 minutes. The resulting LpxA product was separated from other DNA on a 0.8% agarose gel and isolated from the gel. The LpxA open reading frame was cloned into a topoisomerase I-activated vector and transformed into E. coli. […] The newly synthesized plasmid containing the BamHI- and XhoI-flanked LpxA open reading frame and plasmid pET23a were digested with BamHI and XhoI at 37° C. for 2 hours, DNA was separated by agarose gel electrophoresis, isolated from the gel, and ligated. Ligation reactions were transformed into chemically competent E. coli and plasmid DNA was isolated. Restriction mapping was performed to determine which plasmids contained the LpxA open reading frame. To remove the T7 epitope coding sequence from the 5′end of the LpxA open reading frame, the pET23a plasmid containing the LpxA open reading frame was digested with the restriction enzymes BamHI and XhoI and a pET23b plasmid was digested with BglII and XhoI, DNA was separated by agarose gel electrophoresis, isolated from the gel, and ligated. Ligation reactions were transformed into chemically competent E. coli and plasmid DNA was isolated. Restriction mapping was performed to assess plasmids containing the LpxA open reading frame.
A 5 ml culture of E. Coli BL21 cells expressing the LpxA-6×His plasmid was grown overnight at 37° C. in LB medium containing 50 μg/ml ampicillin and 34 μg/ml chloramphenicol, then subcultured into 500 ml of the same medium and grown at 37° C. until A600=0.6. LpxA expression was induced by addition of 0.5 mM IPTG for three hours. The cells were centrifuged at 7 000×g for 10 minutes at 4° C. and lysed using a mild, nonionic detergent. The soluble fraction containing LpxA was added to 1 ml of nickel affinity resin in a 15 ml Falcon tube; the resin was washed extensively with extraction/wash buffer (50 mM Na-phosphate (pH 7.0) and 300 mM NaCl) prior to use. This mixture was incubated on a rotating platform at low speed for 20 minutes at room temperature. The resin was centrifuged at 1000 rpm in a bench top centrifuge for 2 min, washed twice (10 min each) with 10 ml of extraction/wash buffer, resuspended in 10 ml of extraction/wash buffer, and transferred to a 10 ml polypropylene disposable protein purification column. The column was eluted with 5 ml of 50 mM Na-phosphate (pH 7.0) containing 300 mM NaCl and 150 mM imidazole, collected in 1 ml fractions. The eluate was analysed by SDS-PAGE and was visualised using a protein stain (FIG. 7 inset).
Recombinant Vibrio harveyi acyl carrier protein was prepared from a GST fusion protein as described previously (Flaman et al., 2001). […]

[1] = system: LPS synthesis in E. coli strain D22; experiment: In vivo LPS synthesis: [3H]galactose incorporation into acid-precipitable material; assay type: cell-based
Description: LpxA catalyzes the first step in the synthesis of lipid A (the hydrophobic anchor of LPS), which is essential for the growth and pathogenesis of many gram-negative bacteria. The inhibition of LpxA activity would therefore result in decreased synthesis of LPS. To measure the synthesis of LPS in vivo, the incorporation of radiolabelled galactose into acid-precipitable material was determined. The E. coli strain used for these studies was D22 (obtained from the E. coli Genetic Stock Center), which contains a mutation in the LpxC gene (lpxC101; Normark et al., 1969, J Bacteriol 97, 1334). Strains harbouring this mutation have an increased susceptibility to antibiotics, in addition to producing approximately 30% less LPS (Grundstrom et al., 1980, J Bacteriol 144, 884.). Bacteria were grown in Luria broth to early-log phase, at which point, 500 μl was transferred to a culture tube containing 1 μl of [^3H]galactose (final concentration, 0.2 mM, 20 μCi/μmol) and mixed. Cultures were incubated at 30° C. for 75 minutes with shaking at 220 rpm. Incorporation was terminated by adding 400 μl of labelled culture to 44.4 μl of 100% trichloroacetic acid (TCA, 10% final concentration) in a 1.5 ml microcentrifuge tube. Tubes were vortexed, incubated on ice for 30 minutes, then centrifuged at 14 000 rpm for 5 minutes at room temperature. The pellet was rinsed twice with 1 ml of ice-cold 10% TCA, resuspended in 50 μl of formic acid, and transferred to a scintillation vial for counting.
Compounds to be tested were dissolved in DMSO and added to the bacterial culture prior to labelling with galactose, and LPS synthesis was determined as described previously. The final concentration of DMSO (1%, v/v) had minimal effect on LPS synthesis.

T1 sequence (P0A722 whole entry): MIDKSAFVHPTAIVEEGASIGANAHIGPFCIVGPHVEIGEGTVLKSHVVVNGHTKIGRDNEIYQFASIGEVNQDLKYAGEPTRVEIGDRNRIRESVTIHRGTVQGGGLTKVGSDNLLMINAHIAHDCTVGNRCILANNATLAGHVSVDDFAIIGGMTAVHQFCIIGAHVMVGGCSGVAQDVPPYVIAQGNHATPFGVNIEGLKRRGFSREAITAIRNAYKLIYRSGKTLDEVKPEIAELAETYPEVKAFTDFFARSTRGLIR

Compound	inhibition at 5000 µM (recombinant E. coli LpxA) [%]	decrease of LPS synthesis ([1]; 0.1 mM, FIG. 10B) [%]	decrease of LPS synthesis ([1]; 1 mM, FIG. 10A) [%]
COc1ccc(-c2cc(-c3nnn[nH]3)c(-c3ccc(OC)cc3)s2)cc1 [DNM-131D, 5-(2,5-Bis(4-methoxyphenyl)thiophen-3-yl)-1H-tetrazole]	> 80	~50	–
CCOC(=O)c1cccc(-c2cc(-c3nnn[nH]3)c(-c3cccc(C(=O)OCC)c3)s2)c1 [DNM-131I, 5-(2,5-Bis(3-(ethoxylcarbonyl)phenyl)thiophen-3-yl)-1H-tetrazole]	> 80	–	~80
